The IC50 is the point on the concentration scale where inhibition reaches its midpoint. For orientation: EC50 means the concentration that produces a half-maximal response.

One test concerns the target human HDAC8 (Homo sapiens (Human), UniProt Q9BY41). The test is described as follows: HDAC8 inhibition assay (modified FLUOR DE LYS, 384-well). It counts as biochemical.
A further test deals with HDAC6 (Homo sapiens (Human), UniProt Q9UBN7). In words: biochemical.
The target of the next test is human HDAC2 (Homo sapiens (Human), UniProt Q92769). In words: HDAC2 inhibition assay (modified FLUOR DE LYS, 384-well). It counts as biochemical.
The next test deals with human HDAC1 (Homo sapiens (Human), UniProt Q13547). The test is described as follows: biochemical.
A further test relates to KARN cells (Jurkat 2C4). The test is described as follows: cells. Particulars: Homo sapiens.
The target in test [1] is human HDAC3/SMRT heterodimer (Homo sapiens (Human), UniProt O15379). In words: biochemical.
Where [2] appears, read: […] nM enzyme, 200 μM substrate BML-KI178, 3 h pre-incubation, read-out: HDAC8 IC50.
[3] abbreviates: […] nM enzyme, 40 μM substrate BML-KI104, 3 h pre-incubation, read-out: HDAC2 IC50.
Setting [4] is: read-out: Karn EC50 nM 0.1% NHS, 0.1% normal human serum, luciferase induction, 2 μM SAHA = 100%.
Setting [5] is: read-out: Karn EC50 nM 5% NHS, 5% normal human serum, luciferase induction, 2 μM SAHA = 100%.

Structures are written as SMILES. Read-outs that look alike come from different tables or passages of the source.

Sequence of HDAC6 (Q9UBN7 whole entry): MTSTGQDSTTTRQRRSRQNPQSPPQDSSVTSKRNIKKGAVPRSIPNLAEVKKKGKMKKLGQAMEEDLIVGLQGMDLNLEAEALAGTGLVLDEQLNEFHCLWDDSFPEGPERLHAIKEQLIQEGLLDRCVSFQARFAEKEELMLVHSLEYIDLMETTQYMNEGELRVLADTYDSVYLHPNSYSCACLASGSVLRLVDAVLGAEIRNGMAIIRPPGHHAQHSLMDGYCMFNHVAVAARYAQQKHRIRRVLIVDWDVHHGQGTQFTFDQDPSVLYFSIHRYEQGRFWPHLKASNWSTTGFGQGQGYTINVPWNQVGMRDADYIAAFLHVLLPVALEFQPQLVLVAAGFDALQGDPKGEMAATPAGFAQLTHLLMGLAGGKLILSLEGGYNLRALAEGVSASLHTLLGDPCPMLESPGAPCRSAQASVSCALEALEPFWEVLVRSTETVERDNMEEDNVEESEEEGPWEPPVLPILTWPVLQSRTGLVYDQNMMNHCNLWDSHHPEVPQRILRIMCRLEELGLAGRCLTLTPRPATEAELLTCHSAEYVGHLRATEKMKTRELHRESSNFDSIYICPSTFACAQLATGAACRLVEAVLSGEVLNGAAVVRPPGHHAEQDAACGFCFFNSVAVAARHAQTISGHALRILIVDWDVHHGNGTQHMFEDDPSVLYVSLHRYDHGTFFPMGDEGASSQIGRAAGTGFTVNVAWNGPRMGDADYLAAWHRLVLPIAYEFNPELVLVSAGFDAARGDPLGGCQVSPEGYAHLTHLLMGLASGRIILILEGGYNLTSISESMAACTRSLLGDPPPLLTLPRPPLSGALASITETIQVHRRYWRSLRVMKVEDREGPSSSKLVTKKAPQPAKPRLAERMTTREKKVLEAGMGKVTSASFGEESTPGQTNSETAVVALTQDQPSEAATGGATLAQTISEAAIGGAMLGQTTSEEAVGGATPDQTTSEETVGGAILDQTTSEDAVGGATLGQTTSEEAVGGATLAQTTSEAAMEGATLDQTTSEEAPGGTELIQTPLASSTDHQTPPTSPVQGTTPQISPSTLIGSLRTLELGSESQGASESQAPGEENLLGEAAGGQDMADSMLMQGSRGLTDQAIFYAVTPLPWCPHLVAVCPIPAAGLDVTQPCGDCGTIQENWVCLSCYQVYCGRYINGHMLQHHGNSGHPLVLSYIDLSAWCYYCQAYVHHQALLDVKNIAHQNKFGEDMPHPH
Sequence of human HDAC2 (Q92769 whole entry): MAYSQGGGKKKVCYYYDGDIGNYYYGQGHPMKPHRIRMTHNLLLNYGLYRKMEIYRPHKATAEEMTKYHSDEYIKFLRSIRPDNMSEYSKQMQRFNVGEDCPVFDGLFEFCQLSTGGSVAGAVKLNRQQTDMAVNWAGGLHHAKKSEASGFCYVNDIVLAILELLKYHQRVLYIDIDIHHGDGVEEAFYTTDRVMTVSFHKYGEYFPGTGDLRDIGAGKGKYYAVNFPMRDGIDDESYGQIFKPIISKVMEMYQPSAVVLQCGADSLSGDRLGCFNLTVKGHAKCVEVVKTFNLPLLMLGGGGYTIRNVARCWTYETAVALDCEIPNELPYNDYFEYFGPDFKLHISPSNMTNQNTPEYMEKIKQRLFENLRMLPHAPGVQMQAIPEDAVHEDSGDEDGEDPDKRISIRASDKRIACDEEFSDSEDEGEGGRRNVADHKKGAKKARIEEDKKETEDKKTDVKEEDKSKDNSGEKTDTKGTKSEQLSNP
Sequence of human HDAC3/SMRT heterodimer (O15379 whole entry): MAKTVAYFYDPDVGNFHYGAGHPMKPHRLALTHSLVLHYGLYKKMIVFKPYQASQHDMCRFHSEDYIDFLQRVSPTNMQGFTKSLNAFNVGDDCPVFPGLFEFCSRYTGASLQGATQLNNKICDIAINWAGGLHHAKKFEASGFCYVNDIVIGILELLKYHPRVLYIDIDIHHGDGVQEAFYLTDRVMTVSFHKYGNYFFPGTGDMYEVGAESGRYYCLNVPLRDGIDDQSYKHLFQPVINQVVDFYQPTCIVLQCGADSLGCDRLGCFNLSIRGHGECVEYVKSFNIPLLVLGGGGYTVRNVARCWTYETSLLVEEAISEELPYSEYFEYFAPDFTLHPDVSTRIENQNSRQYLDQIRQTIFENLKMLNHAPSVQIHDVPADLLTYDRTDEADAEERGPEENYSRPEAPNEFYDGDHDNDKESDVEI
Sequence of human HDAC3/SMRT heterodimer (Q9Y618 1-899 partner): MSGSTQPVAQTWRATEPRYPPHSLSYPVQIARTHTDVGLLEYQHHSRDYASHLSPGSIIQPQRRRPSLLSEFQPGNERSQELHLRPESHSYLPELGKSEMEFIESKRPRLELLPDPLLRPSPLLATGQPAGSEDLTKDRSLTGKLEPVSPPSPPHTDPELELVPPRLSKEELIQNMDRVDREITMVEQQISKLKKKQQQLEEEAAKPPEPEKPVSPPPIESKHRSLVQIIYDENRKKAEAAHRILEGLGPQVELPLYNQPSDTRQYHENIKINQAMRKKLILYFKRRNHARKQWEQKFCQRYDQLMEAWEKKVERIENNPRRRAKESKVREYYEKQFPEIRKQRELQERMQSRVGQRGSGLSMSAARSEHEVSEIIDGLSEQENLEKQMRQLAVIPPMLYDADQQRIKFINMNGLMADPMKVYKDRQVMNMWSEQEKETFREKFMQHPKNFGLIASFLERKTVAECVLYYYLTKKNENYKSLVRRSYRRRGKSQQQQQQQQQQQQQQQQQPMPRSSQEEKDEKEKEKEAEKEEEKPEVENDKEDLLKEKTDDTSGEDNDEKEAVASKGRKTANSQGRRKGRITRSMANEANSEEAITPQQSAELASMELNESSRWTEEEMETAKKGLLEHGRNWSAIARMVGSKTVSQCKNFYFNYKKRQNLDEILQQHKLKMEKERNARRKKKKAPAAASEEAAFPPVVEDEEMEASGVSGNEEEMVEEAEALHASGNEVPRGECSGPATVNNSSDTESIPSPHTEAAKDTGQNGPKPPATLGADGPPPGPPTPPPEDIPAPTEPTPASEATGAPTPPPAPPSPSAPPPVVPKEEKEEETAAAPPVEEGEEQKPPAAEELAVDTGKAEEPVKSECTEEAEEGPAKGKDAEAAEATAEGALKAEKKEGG
Sequence of human HDAC8 (Q9BY41 whole entry): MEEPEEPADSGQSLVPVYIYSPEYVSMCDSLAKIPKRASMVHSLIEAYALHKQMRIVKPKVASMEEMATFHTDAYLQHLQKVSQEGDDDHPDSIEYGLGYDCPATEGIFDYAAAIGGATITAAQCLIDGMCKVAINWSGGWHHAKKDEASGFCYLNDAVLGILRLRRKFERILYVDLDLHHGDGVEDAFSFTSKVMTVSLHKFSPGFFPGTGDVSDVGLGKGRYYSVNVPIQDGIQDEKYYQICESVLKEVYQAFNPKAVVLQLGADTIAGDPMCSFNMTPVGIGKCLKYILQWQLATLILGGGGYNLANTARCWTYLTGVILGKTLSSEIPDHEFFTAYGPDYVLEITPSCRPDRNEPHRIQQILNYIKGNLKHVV
Sequence of human HDAC1 (Q13547 whole entry): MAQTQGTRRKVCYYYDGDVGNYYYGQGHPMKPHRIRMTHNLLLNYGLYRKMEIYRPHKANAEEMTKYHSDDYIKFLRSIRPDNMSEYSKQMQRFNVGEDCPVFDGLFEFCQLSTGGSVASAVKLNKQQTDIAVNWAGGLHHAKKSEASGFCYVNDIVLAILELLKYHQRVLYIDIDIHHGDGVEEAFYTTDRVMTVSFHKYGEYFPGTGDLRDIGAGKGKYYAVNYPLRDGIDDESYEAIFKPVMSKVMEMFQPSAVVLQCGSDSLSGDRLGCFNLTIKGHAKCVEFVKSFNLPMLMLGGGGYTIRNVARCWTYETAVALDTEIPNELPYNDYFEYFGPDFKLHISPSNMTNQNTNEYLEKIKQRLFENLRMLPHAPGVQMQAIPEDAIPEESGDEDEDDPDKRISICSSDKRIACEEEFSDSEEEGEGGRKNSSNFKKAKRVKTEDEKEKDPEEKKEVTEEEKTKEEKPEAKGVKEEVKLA

As for `Cc1ccc2cc(-c3c[nH]c([C@@H](N)CCCCCC(=O)c4ncco4)n3)ccc2n1` [Example 9, (S)-7-amino-7-(4-(2-methylquinolin-6-yl)-1H-imidazol-2-yl)-1-(oxazol-2-yl)heptan-1-one], the half-inhibitory concentration (IC50) at human HDAC8 (setting [2]) was 2000 nM; on HDAC6, 2300 nM; on human HDAC2 (setting [3]) it was 12 nM; against human HDAC1, 2.4 nM. Also, the concentration giving a half-maximal response (EC50) with KARN cells (Jurkat 2C4) (setting [4]) and with KARN cells (Jurkat 2C4) (setting [5]) was 160 nM throughout.
For the compound `CCn1ccc2cc(-c3c[nH]c([C@@H](N)CCCCCC(=O)c4ncco4)n3)ccc2c1=O` [Example 10, (S)-6-(2-(1-amino-7-(oxazol-2-yl)-7-oxoheptyl)-1H-imidazol-4-yl)-2-ethylisoquinolin-1(2H)-one], the IC50 on human HDAC8 (setting [2]) is 2350 nM; at HDAC6, at least 45000 nM; at human HDAC2 (setting [3]), 9.9 nM; in test [1], 2.8 nM; against human HDAC1, 2.6 nM. Besides, the EC50 in the test on KARN cells (Jurkat 2C4) (setting [4]) amounted to 300 nM; in the test with KARN cells (Jurkat 2C4) (setting [5]), 450 nM.
On to `N[C@@H](CCCCCC(=O)c1ncco1)c1ncc(-c2ccc3ncccc3c2)[nH]1` [Example 16, (S)-7-amino-1-(oxazol-2-yl)-7-(5-(quinolin-6-yl)-1H-imidazol-2-yl)heptan-1-one], for which the half-inhibitory concentration (IC50) on human HDAC8 (setting [2]) is 1400 nM; on HDAC6 it was 33000 nM; at human HDAC2 (setting [3]) it was 8.8 nM; in test [1], 2.6 nM; against human HDAC1, 2.7 nM. For the same compound, the figures for the concentration giving a half-maximal response (EC50) in the test with KARN cells (Jurkat 2C4) (setting [4]) and with KARN cells (Jurkat 2C4) (setting [5]) were 120 nM and 170 nM, respectively.
For the compound `COc1cc2ncccc2cc1-c1c[nH]c([C@@H](N)CCCCCC(=O)c2ncco2)n1` [Example 23, (S)-7-amino-7-(4-(7-methoxyquinolin-6-yl)-1H-imidazol-2-yl)-1-(oxazol-2-yl)heptan-1-one], the IC50 on human HDAC8 (setting [2]) was determined as 660 nM; against HDAC6 it was 31000 nM; at human HDAC2 (setting [3]), 9.5 nM; in test [1] it was 1.8 nM; at human HDAC1, 1.9 nM. For the same compound, the figures for the EC50 in the test with KARN cells (Jurkat 2C4) (setting [4]) and in the test on KARN cells (Jurkat 2C4) (setting [5]) were 100 nM and 210 nM, respectively.
Consider `COc1nc(C2CC2)ccc1-c1c[nH]c([C@@H](N)CCCCCC(=O)c2ncco2)n1` [Example 24, (S)-7-amino-7-(4-(6-cyclopropyl-2-methoxypyridin-3-yl)-1H-imidazol-2-yl)-1-(oxazol-2-yl)heptan-1-one], for which the IC50 was 3200 nM at human HDAC8 (setting [2]); at least 45000 nM at HDAC6; 39 nM at human HDAC2 (setting [3]); 3.5 nM in test [1]; 7.1 nM against human HDAC1. The concentration giving a half-maximal response (EC50) was 1400 nM with KARN cells (Jurkat 2C4) (setting [4]) and 2000 nM with KARN cells (Jurkat 2C4) (setting [5]).
`N[C@@H](CCCCCC(=O)c1ncco1)c1[nH]c(-c2ccc(F)cc2)nc1Cl` [Example 25, (S)-7-amino-7-(4-chloro-2-(4-fluorophenyl)-1H-imidazol-5-yl)-1-(oxazol-2-yl)heptan-1-one]: the IC50 on human HDAC8 (setting [2]) was 6300 nM; at HDAC6, at least 45000 nM; on human HDAC2 (setting [3]), 5 nM; in test [1], 0.38 nM; on human HDAC1 it was 0.66 nM. The concentration giving a half-maximal response (EC50) with KARN cells (Jurkat 2C4) (setting [4]) is 340 nM; with KARN cells (Jurkat 2C4) (setting [5]) it was 650 nM.
Turning to `Cc1ccc2cc(-c3cnc(C(N)CCCCCC(=O)c4ncco4)o3)ccc2n1` (stereo not drawn) [Example 26, 7-amino-7-(5-(2-methylquinolin-6-yl)oxazol-2-yl)-1-(oxazol-2-yl)heptan-1-one], the concentration for half-maximal inhibition (IC50) at human HDAC8 (setting [2]) was 8000 nM; at HDAC6 it was at least 45000 nM; at human HDAC2 (setting [3]), 35 nM; in test [1], 13 nM; on human HDAC1 it was 11 nM. For the same compound, the concentration for a half-maximal effect (EC50) in the test with KARN cells (Jurkat 2C4) (setting [4]) was determined as 6200 nM; in the test with KARN cells (Jurkat 2C4) (setting [5]), 6900 nM.
As to `COc1cc2nc(C)ccc2cc1-c1cnc([C@@H](N)CCCCCC(=O)c2ncco2)o1` [Example 27, (S)-7-amino-7-(5-(7-methoxy-2-methylquinolin-6-yl)oxazol-2-yl)-1-(oxazol-2-yl)heptan-1-one], the concentration for half-maximal inhibition (IC50) at human HDAC8 (setting [2]) came out at 1200 nM; on HDAC6, 1110 nM; on human HDAC2 (setting [3]) it was 9.5 nM; against human HDAC1, 1.9 nM. For the same compound, the concentration for a half-maximal effect (EC50) worked out at 120 nM in the test on KARN cells (Jurkat 2C4) (setting [4]) and 140 nM in the test on KARN cells (Jurkat 2C4) (setting [5]).
On to `COc1ncccc1-c1cnc([C@@H](N)CCCCCC(=O)c2ncco2)o1` [Example 28, (S)-7-amino-7-(5-(2-methoxypyridin-3-yl)oxazol-2-yl)-1-(oxazol-2-yl)heptan-1-one], for which the 50% inhibitory concentration (IC50) on human HDAC8 (setting [2]) is above 900 nM; against HDAC6 it was 655 nM; on human HDAC2 (setting [3]), 32 nM; in test [1], 9.4 nM; against human HDAC1, 9 nM. Besides, the EC50 in the test on KARN cells (Jurkat 2C4) (setting [4]) is 1900 nM; in the test with KARN cells (Jurkat 2C4) (setting [5]), 2000 nM.
Turning to `Cc1ccc2cc(-c3cn(C)c([C@@H](N)CCCCCC(=O)c4ncco4)n3)ccc2n1` [Example 29, (S)-7-amino-7-(1-methyl-4-(2-methylquinolin-6-yl)-1H-imidazol-2-yl)-1-(oxazol-2-yl)heptan-1-one], the IC50 at human HDAC8 (setting [2]) was found to be 20000 nM; against HDAC6 it was 5160 nM; on human HDAC2 (setting [3]) it was 63 nM; in test [1] it was 18 nM; against human HDAC1 it was 15 nM. For the same compound, the concentration for a half-maximal effect (EC50) with KARN cells (Jurkat 2C4) (setting [4]) and in the test on KARN cells (Jurkat 2C4) (setting [5]) was 1800 nM in each case.
In the case of `COc1cc2nc(C)ccc2cc1-c1c[nH]c([C@@H](N)CCCCCC(=O)c2ccon2)n1` [Example 31, (S)-7-amino-1-(isoxazol-3-yl)-7-(4-(7-methoxy-2-methylquinolin-6-yl)-1H-imidazol-2-yl)heptan-1-one], the 50% inhibitory concentration (IC50) came out at 100 nM at human HDAC8 (setting [2]); 22000 nM against HDAC6; 4.3 nM at human HDAC2 (setting [3]); 1.8 nM in test [1]; 1.4 nM against human HDAC1. The figures for the concentration giving a half-maximal response (EC50) in the test with KARN cells (Jurkat 2C4) (setting [4]) and in the test with KARN cells (Jurkat 2C4) (setting [5]) were 18 nM and 26 nM, respectively.
Consider `COc1ncccc1-c1c[nH]c([C@@H](N)CCCCCC(=O)c2ccon2)n1` [Example 33, (S)-7-amino-1-(isoxazol-3-yl)-7-(4-(2-methoxypyridin-3-yl)-1H-imidazol-2-yl)heptan-1-one], for which the half-maximal inhibitory concentration (IC50) at human HDAC8 (setting [2]) was 110 nM; at HDAC6, at least 45000 nM; on human HDAC2 (setting [3]) it was 4.3 nM; in test [1], 0.84 nM; on human HDAC1, 0.73 nM. Besides, the EC50 in the test with KARN cells (Jurkat 2C4) (setting [4]) turned out to be 61 nM; in the test with KARN cells (Jurkat 2C4) (setting [5]), 84 nM.
For the compound `COc1cc2ncccc2cc1-c1c[nH]c([C@@H](N)CCCCCC(=O)c2ccon2)n1` [Example 34, (S)-7-amino-1-(isoxazol-3-yl)-7-(4-(7-methoxyquinolin-6-yl)-1H-imidazol-2-yl)heptan-1-one], the half-maximal inhibitory concentration (IC50) at human HDAC8 (setting [2]) came out at 120 nM; against HDAC6, 5600 nM; on human HDAC2 (setting [3]), 5.1 nM; on human HDAC1, 1.4 nM. In addition, the EC50 in the test on KARN cells (Jurkat 2C4) (setting [4]) stood at 23 nM; in the test on KARN cells (Jurkat 2C4) (setting [5]), 44 nM.
Regarding `N[C@@H](CCCCCC(=O)c1cocn1)c1ncc(-c2ccccc2F)[nH]1` [Example 36, (S)-7-amino-7-(5-(2-fluorophenyl)-1H-imidazol-2-yl)-1-(oxazol-4-yl)heptan-1-one], the 50% inhibitory concentration (IC50) on human HDAC8 (setting [2]) and at HDAC6 was above 900 nM each time.
In the case of `Cc1ccc2cc(-c3c[nH]c([C@H](CCCCCC(=O)c4ncco4)NC4CCN(C)CC4)n3)ccc2n1` [Example 78, (S)-7-((1-methylpiperidin-4-yl)amino)-7-(5-(2-methylquinolin-6-yl)-1H-imidazol-2-yl)-1-(oxazol-2-yl)heptan-1-one], the IC50 on human HDAC8 was 6900 nM; against HDAC6 it was at least 45000 nM; on human HDAC2 it was 8.3 nM; against human HDAC1, 2.8 nM. Besides, the 50% effective concentration (EC50) in the test on KARN cells (Jurkat 2C4) (read-out: Karn EC50 nM 0.1% NHS) is 660 nM; with KARN cells (Jurkat 2C4) (read-out: Karn EC50 nM 5% NHS), 620 nM.

The record behind these values is patent US12331044B2, “Inhibitors of histone deacetylase useful for the treatment or prevention of HIV infection” (Merck Sharp & Dohme LLC, priority 2018, dated 2025).
